The values that follow are results of earlier work, collected in patent publication US20070020197A1, “Preparation of pharmaceutical compositions containing nanoparticles” (WARNER-LAMBERT COMPANY LLC, priority 2004, published 2007).

The conditions of the data set: mean particle size reduced from 4.15 μm to 0.45 μm.

Take `O=C(NC(=O)c1ccccc1[N+](=O)[O-])Nc1ccc(Oc2ncc(Br)cn2)c(Cl)c1` [HO-221]: the bioavailability change result is “doubling”.
